Experimental findings from US8957070B2, “Glucokinase activator compounds, methods of activating glucokinase and methods of treating diabetes and obesity” (Takeda Pharmaceutical Company Limited, priority 2005, dated 2015) are described below.

Structures are written as SMILES.

Test system in one series: not given
Assay: not given
Conditions: not given
A word on the melting point: it is the temperature, or range, at which the solid turns liquid. In turn, `CNc1nc(-c2cc3cccc(N(C)S(=O)(=O)c4cccs4)c3[nH]2)cs1` [Example 174, N-Methyl-N-{2-[2-(methylamino)-1,3-thiazol-4-yl]-1H-indol-7-yl}thiophene-2-sulfonamide] came in with a melting point of 162 to 163 °C.
Regarding `CCN(c1cc(C)c(C)c2cc(-c3ncc(CO)s3)[nH]c12)S(=O)(=O)c1cccs1` [Example 254, N-Ethyl-N-{2-[5-(hydroxymethyl)-1,3-thiazol-2-yl]-4,5-dimethyl-1H-indol-7-yl}thiophene-2-sulfonamide], the melting point lay within 189 to 190 °C.
`CN(c1cc(OC(F)(F)F)cc2cc(C(=O)O)[nH]c12)S(=O)(=O)c1cccs1` [Example 167, 7-[Methyl(2-thienylsulfonyl)amino]-5-(trifluoromethoxy)-1H-indole-2-carboxylic acid] displayed a melting point of 245 to 246 °C.
Still for that read-out and setting: the same measure for `CCOC(=O)c1cc2c(C)c(C)cc(N(CC)S(=O)(=O)c3cccs3)c2[nH]1` [Example 251, Ethyl 7-[ethyl(2-thienylsulfonyl)amino]-4,5-dimethyl-1H-indole-2-carboxylate]: 134 to 135 °C; for `CCN(c1ccc(C)c2cc(-c3ncc(C(C)O)s3)[nH]c12)S(=O)(=O)c1cccs1` (stereo not shown) [Example 249, N-Ethyl-N-{2-[5-(1-hydroxyethyl)-1,3-thiazol-2-yl]-4-methyl-1H-indol-7-yl}thiophene-2-sulfonamide]: 152 to 153 °C; for `CCOC(=O)c1cc2c(C)ccc(N(CC)S(=O)(=O)c3cccs3)c2[nH]1` [Example 246, Ethyl 7-[ethyl(2-thienylsulfonyl)amino]-4-methyl-1H-indole-2-carboxylate]: 148 to 149 °C.
Turning to `CCN(c1ccc(C)c2cc(-c3ncc(CO)s3)[nH]c12)S(=O)(=O)c1cccs1` [Example 250, N-Ethyl-N-{2-[5-(hydroxymethyl)-1,3-thiazol-2-yl]-4-methyl-1H-indol-7-yl}thiophene-2-sulfonamide], the melting point was 166 to 167 °C.

The target in a further series is T1, GST-hLGK1 (human liver type GK) (Homo sapiens, UniProt P35557).
T1 construct: with a BamHI site added to immediately before the initiation codon; made in house; host or cells: Escherichia coli BL21
T1 sequence (P35557 1-464 isoform P35557-3): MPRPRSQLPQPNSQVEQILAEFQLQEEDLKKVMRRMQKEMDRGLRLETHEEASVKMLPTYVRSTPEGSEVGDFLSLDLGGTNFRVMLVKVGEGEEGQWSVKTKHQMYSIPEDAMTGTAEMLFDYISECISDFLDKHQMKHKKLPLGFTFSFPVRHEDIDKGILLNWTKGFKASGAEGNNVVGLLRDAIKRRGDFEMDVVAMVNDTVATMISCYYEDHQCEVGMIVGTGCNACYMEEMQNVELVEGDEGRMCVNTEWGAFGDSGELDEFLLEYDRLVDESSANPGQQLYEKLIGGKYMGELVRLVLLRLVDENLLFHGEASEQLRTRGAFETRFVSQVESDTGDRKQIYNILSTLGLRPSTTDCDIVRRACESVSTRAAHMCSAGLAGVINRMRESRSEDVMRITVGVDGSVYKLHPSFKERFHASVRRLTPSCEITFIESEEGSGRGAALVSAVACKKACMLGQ
The series is described as follows: Determination of GK activity value (Mant-ATP conversion, capillary electrophoresis). Particulars: concentration necessary for activating 50% of the maximum GK activity value, 37° C., 60 min, D-glucose added. It is filed as biochemical. The procedure: A solution (5 μL) of test compound in 50% dimethyl sulfoxide was added to each well of 384 well black plate (Nalge Nunc International K.K.). Then, a solution (35 μL) obtained by diluting GST-hLGK1 obtained in Reference Example 2A with measurement buffer (containing 50 mM HEPES (pH 7.4), 200 mM KCl, 5 mM MgCl2, 2.5 mM DTT and 50 μM 2′-(or -3′)-O—(N-methylanthraniloyl)adenosine 5′-triphosphate (Mant-ATP) (Jena Bioscience GmbH)) to 6 μg/mL was added to each well.
Each well was stood at 37° C. for 10 min, and 25 mM D-glucose solution (10 μL) was added to start the reaction.
Each well after the reaction was stood at 37° C. for 60 min, and the reaction was quenched by adding 25 μL of a quenching solution (containing 200 mM HEPES (pH 7.4), 20 mM MgCl2, 200 mM EDTA, 0.03% Triton-X 100, 0.3% Coating 3 reagent (Caliper Life Sciences, Inc.)).
Mant-ATP (substrate) and Mant-ADP (reaction resultant product) were separated from each well after the reaction by a microchip type capillary electrophoresis apparatus 250 HTS (Caliper Life Sciences, Inc.). The reaction rate [(reaction resultant product peak height)/(reaction resultant product peak height+substrate peak height)×100(%)] was calculated from the ratio of the substrate peak height and reaction resultant product peak height obtained by fluorescence detection (excitation wavelength 355 nm, measurement wavelength 460 nm) and used as the index of GK activity.
As a control group, the reaction rate was calculated in the same manner as above except that “solution in 50% dimethyl sulfoxide” was used instead of “solution of test compound in 50% dimethyl sulfoxide”.
The percentage obtained by dividing the reaction rate of the well added with the test compound (test compound addition group) by the reaction rate of the well added with 50% solution in dimethyl sulfoxide alone (control group) was taken as the GK activity value of the test compound, and the concentration of the test compound necessary for activating 50% of the maximum value of the activity value is shown as EC50 value.
Usually EC50 stands for the concentration needed to bring the measured effect to its halfway point. `Cc1cc(NS(=O)(=O)c2cccs2)c2[nH]c3c(c2c1)CCNC3=O` [Example 52, N-(6-Methyl-1-oxo-2,3,4,9-tetrahydro-1H-β-carbolin-8-yl)thiophene-2-sulfonamide] returned an EC50 of 2000 nM.
Molecule `O=S(=O)(Nc1cccc2cc(C3=NCCS3)[nH]c12)c1cccs1` [Example 3, N-[2-(4,5-dihydro-1,3-thiazol-2-yl)-1H-indol-7-yl]thiophene-2-sulfonamide] showed an EC50 of 110 nM.
In turn, `CN(c1cccc2cc(-c3nccs3)[nH]c12)S(=O)(=O)c1nccn1C` [Example 209, N,1-Dimethyl-N-[2-(1,3-thiazol-2-yl)-1H-indol-7-yl]-1H-imidazole-2-sulfonamide] had an EC50 of 510 nM. Against the preceding molecule, the EC50 is about 4.6-fold higher.
In turn, `CN(c1cccc2cc(-c3nccs3)[nH]c12)S(=O)(=O)c1cccs1` [Example 97, N-Methyl-N-[2-(1,3-thiazol-2-yl)-1H-indol-7-yl]thiophene-2-sulfonamide] registered an EC50 of 77 nM.
As to `CCOC(=O)Cc1cnc(-c2cc3cccc(N(C)S(=O)(=O)c4cccs4)c3[nH]2)s1` [Example 137, Ethyl (2-{7-[methyl(2-thienylsulfonyl)amino]-1H-indol-2-yl}-1,3-thiazol-5-yl)acetate], the EC50 was found to be 48 nM.
In the case of `O=S(=O)(Nc1cccc2cc(-c3ccccn3)[nH]c12)c1cccs1` [Example 8, N-[2-(Pyridin-2-yl)-1H-indol-7-yl]thiophene-2-sulfonamide], the 50% effective concentration (EC50) came to 1500 nM.
Still for that read-out and setting: the same measure for `CCN(c1cccc2cc(-c3ncc(COc4ccc(C(=O)O)cc4)s3)[nH]c12)S(=O)(=O)c1cccs1` [Example 280, 4-[(2-{7-[ethyl(2-thienylsulfonyl)amino]-1H-indol-2-yl}-1,3-thiazol-5-yl)methoxy]benzoic acid]: 35 nM.
`CCN(c1cccc2cc(C3=NCCS3)[nH]c12)S(=O)(=O)c1cccs1` [Example 104, N-[2-(4,5-Dihydro-1,3-thiazol-2-yl)-1H-indol-7-yl]-N-ethylthiophene-2-sulfonamide] displayed an EC50 of 34 nM.
The molecule `O=C1CCCc2c1[nH]c1c(NS(=O)(=O)c3cccs3)cccc21` [Example 11, N-(1-Oxo-2,3,4,9-tetrahydro-1H-carbazol-8-yl) thiophene-2-sulfonamide] had an EC50 of 1400 nM. This EC50 lies about 41-fold higher than the previous one.
Turning to `Cc1c(C2=NCCS2)[nH]c2c(NS(=O)(=O)c3cccs3)cccc12` [Example 26, N-[2-(4,5-Dihydro-1,3-thiazol-2-yl)-3-methyl-1H-indol-7-yl]thiophene-2-sulfonamide], the midpoint of the response, the EC50, lay at 1700 nM.
Take `CN(c1cccc2cc(-c3ncc(CN4CCOCC4)s3)[nH]c12)S(=O)(=O)c1cccs1` [Example 146, N-Methyl-N-{2-[5-(morpholin-4-ylmethyl)-1,3-thiazol-2-yl]-1H-indol-7-yl}thiophene-2-sulfonamide]: the EC50 worked out at 180 nM.
`CN(c1ccc(Cl)c2cc(-c3ncc(CO)s3)[nH]c12)S(=O)(=O)c1cccs1` [Example 261, N-{4-chloro-2-[5-(hydroxymethyl)-1,3-thiazol-2-yl]-1H-indol-7-yl}-N-methylthiophene-2-sulfonamide] had a 50% effective concentration (EC50) of 19 nM.
Take `CCCSc1ccc(NS(=O)(=O)c2cccs2)c2[nH]c(C(=O)OCC)cc12` [Example 65, Ethyl 4-(propylthio)-7-[(2-thienylsulfonyl)amino]-1H-indole-2-carboxylate]: the EC50 stood at 390 nM. Against the preceding molecule, the EC50 is about 21-fold higher.
The molecule `CCOC(=O)c1[nH]c2c(NS(=O)(=O)c3cccs3)cccc2c1C` [Example 23, Ethyl 3-methyl-7-[(2-thienylsulfonyl)amino]-1H-indole-2-carboxylate] displayed a half-maximal effective concentration (EC50) of 2700 nM.
For the molecule `CN(c1cc(F)cc2cc(C3=NCCS3)[nH]c12)S(=O)(=O)c1cccs1` [Example 165, N-[2-(4,5-dihydro-1,3-thiazol-2-yl)-5-fluoro-1H-indol-7-yl]-N-methylthiophene-2-sulfonamide], the EC50 is 28 nM.
Same read-out and setting: the figure for `O=S(=O)(Nc1cccc2cc(-c3ncon3)[nH]c12)c1cccs1` [Example 17, N-[2-(1,2,4-Oxadiazol-3-yl)-1H-indol-7-yl]thiophene-2-sulfonamide] is 4800 nM.
On to `CN(c1cc(OC(F)(F)F)cc2cc(C3=NCCS3)[nH]c12)S(=O)(=O)c1cccs1` [Example 169, N-[2-(4,5-dihydro-1,3-thiazol-2-yl)-5-(trifluoromethoxy)-1H-indol-7-yl]-N-methylthiophene-2-sulfonamide], for which a half-maximal response (EC50) required 22 nM. Against the preceding molecule, the EC50 is about 220-fold lower.
On to `O=S(=O)(Nc1cccc2cc(-c3nccs3)[nH]c12)c1cccs1` [Example 7, N-[2-(1,3-Thiazol-2-yl)-1H-indol-7-yl]thiophene-2-sulfonamide], for which the EC50 stood at 240 nM.
`CN(c1cccc2cc(-c3ncc(CCC#N)s3)[nH]c12)S(=O)(=O)c1cccs1` [Example 151, N-{2-[5-(2-Cyanoethyl)-1,3-thiazol-2-yl]-1H-indol-7-yl}-N-methylthiophene-2-sulfonamide] had an EC50 of 80 nM. Compared with the last molecule, the EC50 is about 3-fold lower.
Turning to `CN(c1cccc2cc(C3=NCCS3)[nH]c12)S(=O)(=O)c1cccs1` [Example 86, N-[2-(4,5-Dihydro-1,3-thiazol-2-yl)-1H-indol-7-yl]-N-methylthiophene-2-sulfonamide], the EC50 was 27 nM.
In the case of `O=S(=O)(Nc1cccc2cc(C3=NCCO3)[nH]c12)c1cccs1` [Example 5, N-[2-(4,5-Dihydro-1,3-oxazol-2-yl)-1H-indol-7-yl]thiophene-2-sulfonamide], the half-maximal effective concentration (EC50) stood at 1200 nM.
